Experimental data from ChEMBL document CHEMBL1147637, “Synthesis and biological activity of selective azasugar-based TACE inhibitors” (Bioorg Med Chem Lett, 2004).

Legend:
[1] = molecular target: Stromelysin-1 (Homo sapiens, UniProt P08254); test: Inhibition of recombinant human matrix metalloprotease-3
[2] = molecular target: Matrix metalloproteinase-9 (Homo sapiens, UniProt P14780); test: Inhibition of recombinant human matrix metalloprotease-9
[3] = molecular target: T1, Interstitial collagenase (Homo sapiens, UniProt P03956); test: Inhibition of recombinant human matrix metalloprotease-1
T1 sequence (P03956 whole entry): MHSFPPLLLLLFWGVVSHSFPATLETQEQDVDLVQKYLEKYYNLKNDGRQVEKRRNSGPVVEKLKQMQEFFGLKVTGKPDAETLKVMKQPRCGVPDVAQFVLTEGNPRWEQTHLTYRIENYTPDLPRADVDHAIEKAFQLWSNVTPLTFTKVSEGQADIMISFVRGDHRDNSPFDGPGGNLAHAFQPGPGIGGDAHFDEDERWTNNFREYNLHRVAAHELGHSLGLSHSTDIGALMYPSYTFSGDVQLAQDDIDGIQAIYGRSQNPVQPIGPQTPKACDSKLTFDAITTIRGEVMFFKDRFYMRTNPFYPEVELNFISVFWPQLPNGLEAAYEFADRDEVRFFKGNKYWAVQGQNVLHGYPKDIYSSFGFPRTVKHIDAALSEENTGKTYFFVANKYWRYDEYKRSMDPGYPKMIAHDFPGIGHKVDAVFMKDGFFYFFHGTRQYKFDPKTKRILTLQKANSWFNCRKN

[4] = molecular target: Disintegrin and metalloproteinase domain-containing protein 17 (Homo sapiens, UniProt P78536); test: Inhibition of recombinant human TNF-alpha converting enzyme
Chain of Disintegrin and metalloproteinase domain-containing protein 17 (P78536 whole entry, the tested form may be a part): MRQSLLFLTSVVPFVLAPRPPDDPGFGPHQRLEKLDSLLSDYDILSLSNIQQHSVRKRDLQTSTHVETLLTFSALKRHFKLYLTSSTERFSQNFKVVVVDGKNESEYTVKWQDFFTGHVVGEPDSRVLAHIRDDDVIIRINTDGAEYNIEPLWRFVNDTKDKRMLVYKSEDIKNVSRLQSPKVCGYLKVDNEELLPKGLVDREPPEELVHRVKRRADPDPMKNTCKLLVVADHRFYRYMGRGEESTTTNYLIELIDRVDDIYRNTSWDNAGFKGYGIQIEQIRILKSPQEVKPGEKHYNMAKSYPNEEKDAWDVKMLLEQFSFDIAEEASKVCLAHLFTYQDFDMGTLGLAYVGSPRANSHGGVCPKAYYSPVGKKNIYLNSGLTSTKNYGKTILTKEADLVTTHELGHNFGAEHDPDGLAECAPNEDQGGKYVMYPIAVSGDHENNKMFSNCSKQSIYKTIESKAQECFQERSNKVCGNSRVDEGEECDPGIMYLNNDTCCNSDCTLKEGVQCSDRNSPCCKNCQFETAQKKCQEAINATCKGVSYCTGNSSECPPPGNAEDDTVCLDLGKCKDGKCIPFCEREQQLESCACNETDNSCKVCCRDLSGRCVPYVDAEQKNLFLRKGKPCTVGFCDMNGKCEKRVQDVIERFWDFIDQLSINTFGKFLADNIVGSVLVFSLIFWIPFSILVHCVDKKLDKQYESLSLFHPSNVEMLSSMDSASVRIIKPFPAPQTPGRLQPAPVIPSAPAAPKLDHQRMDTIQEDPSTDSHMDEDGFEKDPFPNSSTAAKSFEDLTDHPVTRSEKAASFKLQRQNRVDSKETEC

Chain of Stromelysin-1 (P08254 whole entry): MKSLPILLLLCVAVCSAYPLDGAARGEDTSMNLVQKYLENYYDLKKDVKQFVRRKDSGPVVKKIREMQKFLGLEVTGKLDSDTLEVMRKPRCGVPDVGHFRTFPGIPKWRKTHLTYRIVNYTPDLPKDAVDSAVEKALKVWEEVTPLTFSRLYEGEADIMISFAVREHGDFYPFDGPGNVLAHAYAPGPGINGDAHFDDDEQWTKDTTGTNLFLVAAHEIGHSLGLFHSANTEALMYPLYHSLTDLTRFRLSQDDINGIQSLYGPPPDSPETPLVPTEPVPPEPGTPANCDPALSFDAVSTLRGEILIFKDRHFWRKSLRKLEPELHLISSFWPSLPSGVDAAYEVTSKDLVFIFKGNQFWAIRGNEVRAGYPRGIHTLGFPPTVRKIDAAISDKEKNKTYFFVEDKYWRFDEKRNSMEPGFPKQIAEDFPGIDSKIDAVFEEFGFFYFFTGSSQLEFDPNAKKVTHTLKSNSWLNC
Chain of Matrix metalloproteinase-9 (P14780 whole entry): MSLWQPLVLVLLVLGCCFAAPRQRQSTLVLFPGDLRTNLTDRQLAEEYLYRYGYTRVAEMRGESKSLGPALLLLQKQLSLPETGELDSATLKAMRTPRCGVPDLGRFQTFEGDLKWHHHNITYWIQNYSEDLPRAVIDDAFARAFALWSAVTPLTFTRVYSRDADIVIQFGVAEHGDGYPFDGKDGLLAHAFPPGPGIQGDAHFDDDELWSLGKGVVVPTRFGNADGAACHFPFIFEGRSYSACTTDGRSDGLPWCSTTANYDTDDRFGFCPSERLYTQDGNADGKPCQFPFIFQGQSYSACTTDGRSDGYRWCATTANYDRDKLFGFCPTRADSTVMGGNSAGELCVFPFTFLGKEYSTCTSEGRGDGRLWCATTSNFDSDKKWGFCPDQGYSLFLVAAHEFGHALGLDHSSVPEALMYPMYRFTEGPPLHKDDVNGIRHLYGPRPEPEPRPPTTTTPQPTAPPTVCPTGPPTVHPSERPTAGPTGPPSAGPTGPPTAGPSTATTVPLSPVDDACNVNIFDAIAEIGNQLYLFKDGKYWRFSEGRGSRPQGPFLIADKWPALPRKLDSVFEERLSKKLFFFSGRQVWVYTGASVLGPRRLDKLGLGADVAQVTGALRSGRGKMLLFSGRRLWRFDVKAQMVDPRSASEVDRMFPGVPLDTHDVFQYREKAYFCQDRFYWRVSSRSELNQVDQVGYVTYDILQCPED

| SMILES | Ki [1] [nM] | Ki [2] [nM] | Ki [3] [nM] | Ki [4] [nM] |
| --- | --- | --- | --- | --- |
| CC#CCOc1ccc(S(=O)(=O)N2C[C@H]3OC(C)(C)O[C@H]3[C@H](O)[C@@H]2C(=O)NO)cc1 | 29.6 | 77.8 | > 850 | 0.57 |
| CC#CCOc1ccc(S(=O)(=O)N2C[C@@H](O)[C@H]3OC(C)(C)O[C@@H]3[C@@H]2C(=O)NO)cc1 | 58.1 | 118 | > 850 | 1.85 |

Now those with a lower Ki [1], led by results:

| Ki [1] [nM] | Ki [2] [nM] | Ki [3] [nM] | Ki [4] [nM] | SMILES |
| --- | --- | --- | --- | --- |
| 0.43 | 12 | 90 | 1.85 | CC#CCOc1ccc(S(=O)(=O)N2C[C@@H](O)[C@@H](O)[C@H](OC)[C@@H]2C(=O)NO)cc1 |
| 11.5 | 98.2 | 552 | 0.84 | CC#CCOc1ccc(S(=O)(=O)N2C[C@H]3OC(C)(C)O[C@H]3[C@H](OC)[C@@H]2C(=O)NO)cc1 |
| 3.3 | 14.2 | 128 | – | CC#CCOc1ccc(S(=O)(=O)N2C[C@@H](O)[C@@H](O)[C@H](O)[C@@H]2C(=O)NO)cc1 |
